Results published in patent US10538532B2, “Hepatitis B antiviral agents” (ENANTA PHARMACEUTICALS, INC., priority 2016, dated 2020).
Like-named read-outs stand apart in the source and are kept apart here.

Columns and labels:
HBV = assay: HepAD38 antiviral assay: reduction of viral product accumulation (virion DNA by qPCR, HBsAg or HBeAg by ELISA); assay type: cell-based, hepatitis B virus; settings: HepAD38 cells, five days after compound addition, concentration reducing viral product accumulation by 50% relative to no drug controls, read-out: HepAD38 EC50
Procedure, shortened: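 EC50 values represent 50% reduction of viral product accumulation in lysates or supernatants relative to untreated controls, with virion DNA read by qPCR and HBsAg/HBeAg by ELISA. Measurements followed 5 days of treatment, or 8 days with compound renewed on d2 and d5. Cells were tetracycline-depleted HepAD38 at 35,000/well, dosed with a 1:200 dilution of DMSO stocks.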

[1] = Compound toxicity, ATPLite total ATP levels; assay type: cell-based; settings: human, HepAD38 cells, three days after compound addition, concentration reducing total ATP levels by 50% relative to no drug controls
Experimental: Methods: HepAD38 cells are maintained as previously reported (Ladner et al, Antimicrob. Agents Chemother. 1997, […], 1715). Briefly, cells are passaged upon attaining confluency in DMEM/F12 media in the presence of 10% FBS, Penn/Strep, 250 μg/mL G418, and 1 ug/ml tetracycline. Novel compounds are screened by first washing cells three times with PBS to remove tetracycline, and plating in 96 well plates at 35,000 cells/well. Compounds dissolved in DMSO are then diluted 1:200 into wells containing cells. Five days after compound addition, material is harvested for analysis. For an extended 8 day analysis, cells are plated and treated as described above, but media and compound are refreshed on d2 and d5 post initial treatment.
Compound toxicity is evaluated by seeding cells at 15,000 cells/well and treating with compound as described above.

[2] = Hepatitis B virus, HePAD38, 120 h

SMILES | EC50 (HBV; [2]) [nM] | CC50 at 3 days ([1]; class symbols) [nM] | CC50 at 3 days ([1]; numeric bounds) [nM] | EC50 (HBV) [nM]
O=C(Nc1cc(F)c(F)c(F)c1)c1ccc(Cl)c(S(=O)(=O)[C@H]2CC[C@H](O)CC2)c1 [Example 3] | 100 to 400 | > 25000 |  | 
O=C(Nc1cc(F)c(F)c(F)c1)c1ccc(Cl)c(S(=O)(=O)[C@H]2CC[C@@H](O)CC2)c1 [Example 4] | 100 to 400 | > 25000 |  | 
O=C(Nc1cc(F)c(F)c(F)c1)c1ccc(Cl)c(S(=O)(=O)CCCO)c1 [Example 7] | > 400 | > 25000 |  | 
O=C(Nc1cc(F)c(F)c(F)c1)c1ccc(Cl)c(S(=O)(=O)[C@]2(F)CC[C@H](O)CC2)c1 [Example 8] | 100 to 400 | 10000 to 25000 |  | 
O=C(Nc1cc(F)c(F)c(F)c1)c1ccc(Cl)c(S(=O)(=O)[C@]2(F)CC[C@@H](O)CC2)c1 [Example 9] | 100 to 400 | 10000 to 25000 |  | 
C[C@]1(S(=O)(=O)c2cc(C(=O)Nc3cc(F)c(F)c(F)c3)ccc2Cl)CC[C@@H](O)CC1 [Example 16] | 100 to 400 | > 25000 |  | 
C[C@]1(S(=O)(=O)c2cc(C(=O)Nc3cc(F)c(F)c(F)c3)ccc2Cl)CC[C@H](O)CC1 [Example 17] | 100 to 400 | > 25000 |  | 
O=C(Nc1cc(F)c(F)c(F)c1)c1ccc(Cl)c(S(=O)(=O)Cc2cccnc2)c1 [Example 45] | 100 to 400 | > 25000 |  | 
O=C(Nc1cc(F)c(F)c(F)c1)c1ccc(Cl)c(S(=O)(=O)Cc2ccncc2)c1 [Example 46] | 100 to 400 | > 25000 |  | 
O=C(Nc1cc(F)c(F)c(F)c1)c1ccc(Cl)c(S(=O)(=O)Cc2ccccn2)c1 [Example 48] | > 400 | > 25000 |  | 
O=C(Nc1cc(F)c(F)c(F)c1)c1ccc(Cl)c(S(=O)(=O)[C@H]2C3CCC2C[C@](O)(CO)C3)c1 [Example 60] | < 100 | > 25000 |  | 
CC(c1ccncc1)S(=O)(=O)c1cc(C(=O)Nc2cc(F)c(F)c(F)c2)ccc1Cl (centres unmarked) [Example 80] | < 100 | 10000 to 25000 |  | 
O=C(Nc1cc(F)c(F)c(F)c1)c1ccc(Cl)c(S(=O)(=O)C2CC[C@H](O)[C@@H](O)CC2)c1 [Example 84] | < 100 | > 25000 |  | 
CC(=O)[C@]1(O)CC2CC[C@@H](C1)[C@H]2S(=O)(=O)c1cc(C(=O)Nc2cc(F)c(F)c(F)c2)ccc1Cl [Example 150] | < 100 | 10000 to 25000 |  | 
CN(C)C[C@]1(O)CC2CC[C@@H](C1)[C@H]2S(=O)(=O)c1cc(C(=O)Nc2cc(F)c(F)c(F)c2)ccc1Cl [Example 154] | < 100 | < 10000 |  | 
CC1=NO[C@@]2(C1)CC1CC[C@@H](C2)[C@H]1S(=O)(=O)c1cc(C(=O)Nc2cc(F)c(F)c(F)c2)ccc1Cl [Example 188] | < 100 |  | > 12500 | 
O=C(Nc1cc(F)c(F)c(F)c1)c1ccc(Cl)c(S(=O)(=O)[C@H]2C3CC[C@H]2C[C@](O)(c2cc(-c4ccccc4)on2)C3)c1 [Example 220] | < 100 | < 10000 |  | 
C[C@]1(O)C2CCC1C[C@@H](S(=O)(=O)c1cc(C(=O)Nc3cc(F)c(F)c(F)c3)ccc1Cl)C2 [Example 246] | 100 to 400 | 10000 to 25000 |  | 
CC[C@]1(O)C2CCC1C[C@@H](S(=O)(=O)c1cc(C(=O)Nc3cc(F)c(F)c(F)c3)ccc1Cl)C2 [Example 252] | < 100 |  | > 6250 | 
C[C@]1(O)C2CCC1C[C@H](S(=O)(=O)c1cc(C(=O)Nc3cc(F)c(F)c(F)c3)ccc1Cl)C2 [Example 253] |  | > 25000 |  | < 100

SMILES | EC50 (HBV; [2]) [nM] | CC50 at 3 days ([1]; class symbols) [nM] | CC50 at 3 days ([1]; numeric bounds) [nM] | EC50 (HBV) [nM]
O=C(Nc1cc(F)c(F)c(F)c1)c1ccc(Cl)c(S(=O)(=O)[C@H]2CC3CCC(C2)[C@]3(O)Cn2cccn2)c1 [Example 256] | < 100 |  | > 12500 | 
[N-]=[N+]=NC[C@]1(O)C2CCC1C[C@@H](S(=O)(=O)c1cc(C(=O)Nc3cc(F)c(F)c(F)c3)ccc1Cl)C2 [Example 257] | < 100 | > 25000 |  | 
[N-]=[N+]=NC[C@]1(O)C2CCC1C[C@H](S(=O)(=O)c1cc(C(=O)Nc3cc(F)c(F)c(F)c3)ccc1Cl)C2 [Example 258] | < 100 |  | > 12500 | 
CS(=O)(=O)NC[C@]1(O)C2CCC1C[C@@H](S(=O)(=O)c1cc(C(=O)Nc3cc(F)c(F)c(F)c3)ccc1Cl)C2 [Example 259] | < 100 |  | > 12500 | 
O=C1NC[C@]2(O1)C1CCC2C[C@@H](S(=O)(=O)c2cc(C(=O)Nc3cc(F)c(F)c(F)c3)ccc2Cl)C1 [Example 260] | < 100 | > 25000 |  | 
C=C[C@]1(O)CC2CC[C@@H](C1)[C@H]2S(=O)(=O)c1cc(C(=O)Nc2cc(F)c(F)c(F)c2)ccc1Cl [Example 267] | < 100 | > 25000 |  | 
[N-]=[N+]=NC[C@@]1(O)CC2CC[C@@H](C1)[C@H]2S(=O)(=O)c1cc(C(=O)Nc2cc(F)c(F)c(F)c2)ccc1Cl [Example 271] | < 100 |  | > 12500 | 
NC(=O)OC[C@@H]1CC2CC[C@@H](C1)[C@H]2S(=O)(=O)c1cc(C(=O)Nc2cc(F)c(F)c(F)c2)ccc1Cl [Example 272] | < 100 |  | > 12500 | 
CS(=O)(=O)NC[C@]1(O)C2CCC1C[C@H](S(=O)(=O)c1cc(C(=O)Nc3cc(F)c(F)c(F)c3)ccc1Cl)C2 [Example 273] | < 100 |  | > 12500 | 
O=C1NC[C@]2(O1)C1CCC2C[C@H](S(=O)(=O)c2cc(C(=O)Nc3cc(F)c(F)c(F)c3)ccc2Cl)C1 [Example 274] | < 100 | > 25000 |  | 
N#CC[C@]1(O)C2CCC1C[C@@H](S(=O)(=O)c1cc(C(=O)Nc3cc(F)c(F)c(F)c3)ccc1Cl)C2 [Example 275] | < 100 | > 25000 |  | 
O=C(Nc1cc(F)c(F)c(F)c1)c1ccc(Cl)c(S(=O)(=O)[C@H]2CC3CCC(C2)[C@]3(O)Cc2nnn[nH]2)c1 [Example 276] | > 400 | > 25000 |  | 
NC[C@@]1(O)CC2CC[C@@H](C1)[C@H]2S(=O)(=O)c1cc(C(=O)Nc2cc(F)c(F)c(F)c2)ccc1Cl [Example 277] | 100 to 400 | < 10000 |  | 
CCS(=O)(=O)NC[C@@]1(O)CC2CC[C@@H](C1)[C@H]2S(=O)(=O)c1cc(C(=O)Nc2cc(F)c(F)c(F)c2)ccc1Cl [Example 278] | 100 to 400 | > 25000 |  | 
O=C(Nc1cc(F)c(F)c(F)c1)c1ccc(Cl)c(S(=O)(=O)[C@H]2C3CC[C@H]2C[C@@](O)(CNS(=O)(=O)C2CC2)C3)c1 [Example 279] | 100 to 400 | > 25000 |  | 
CC(=O)NC[C@@]1(O)CC2CC[C@@H](C1)[C@H]2S(=O)(=O)c1cc(C(=O)Nc2cc(F)c(F)c(F)c2)ccc1Cl [Example 280] | 100 to 400 | > 25000 |  | 
O=C(Nc1cc(F)c(F)c(F)c1)c1ccc(Cl)c(S(=O)(=O)[C@H]2C3CC[C@H]2C[C@](O)(c2ncc[nH]2)C3)c1 [Example 281] | < 100 | > 25000 |  | 
C[C@]1(O)CC2CC[C@@H](C1)[C@H]2S(=O)(=O)c1cc(C(=O)Nc2cc(F)c(F)c(F)c2)ccc1Cl [Example 282] | < 100 | > 25000 |  | 
O=C(Nc1cc(F)c(F)c(F)c1)c1ccc(Cl)c(S(=O)(=O)[C@H]2C3CC[C@H]2C[C@@H](c2ncc[nH]2)C3)c1 [Example 283] | 100 to 400 | < 10000 |  | 
N#C[C@H]1CC2CC[C@@H](C1)[C@H]2S(=O)(=O)c1cc(C(=O)Nc2cc(F)c(F)c(F)c2)ccc1Cl [Example 284] | < 100 |  | > 3120 | 
